From patent US5089623A, “Certain imidate insecticides” (Imperial Chemical Industries Plc, priority 1990, dated 1992) come the findings set out here.

Holding throughout (assay type): in vivo
Assay [1] has as its system Tobacco Budworm [Heliothis virescens (Fabricius)] eggs. As to the kind of experiment: Tobacco budworm egg test (TBW-E). The settings on record: percent in solution.
Assay [2] relates to Housefly [Musca domestica]. As to the kind of experiment: Housefly insecticidal test (HF). The settings on record: per 25 female houseflies, 48 hours.
Assay [3] concerns Cabbage Looper [Trichoplusia ni (Hubner)]. Briefly: Cabbage looper test (CL). The note with it: second-instar larvae, 3-5 days, percent in solution.
The test system of assay [4] is Rice water weevil [Lissorhoptrus oryzophilus (Kuschel)]. Briefly: Rice water weevil test (RWW). The settings on record: per weevil, topical, female adults, 48 hours. On the procedure:
(§1) The compounds in Tables 1 and 2 above were tested for insecticidal activity using the following testing procedures. LC50 values, based on the results of these tests and calculated according to dosage-mortality curves, are expressed in Table 3.
Rice water weevil [Lissorhoptrus oryzophilus (Kuschel)]
Test compounds were diluted in acetone. Droplets (1 ul) of test solutions were applied to the ventral abdomens of ten female adult weevils. The treated weevils were placed in containers with wet cotton balls and rice foliage. The containers were covered and kept at a temperature of about 25° C. Mortality was recorded after 48 hours. […] The LC50 values are expressed below in Table 3 under the heading "RWW" in terms of μg of test compound per weevil.

Assay [5] has as its system Maize weevil [Sitophilus Zeamais (Motschulsky)]. As to the kind of experiment: Maize weevil test (MW). The settings on record: adult weevils, treated corn seeds, 48 hours, percent in solution. The essentials: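 Adult weevils (10) were placed with four corn seeds that had been dipped 2-3 s in compound dissolved in 50:50 acetone:water, then dried, and held at about 25° C. Mortality was scored at 48 h. LC50 was taken from dosage-mortality curves and expressed as percent compound in solution, from a 0.01% top concentration.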

Assay [6] relates to Beet Armyworm (Spodoptera exigua). As to the kind of experiment: Beet armyworm test (BAW). The settings on record: second-instar larvae, five days, percent in solution. On the procedure:
as §1
Beet Armyworm (Spodoptera exigua)
Test compounds were diluted in a 50-50 acetone-water solution. Young leaves of sugar beets (Beta vulgaris) were immersed in the test solutions for 2-3 seconds and placed on a wire screen to dry. The dried leaves were placed in petri dishes containing a moistened filter paper and infested with five second-instar beet armyworm larvae. The dishes were placed in a high humidity chamber. Mortality of the larvae was recorded five days later. Test concentrations ranged from 0.1% downward. The LC-50 values are expressed below in Table 3 under the heading "BAW" in terms of percent of the test compound in solution.

Assay [7] has as its system Tobacco Budworm [Heliothis virescens (Fabricius)]. Briefly: Tobacco budworm contact test (TBW-C). The note with it: second-instar larvae, 5 days, percent in solution. The procedure, abridged:
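Cotton cotyledons dipped 2–3 s in compound in 50:50 acetone–water, dried, then infested with 5 second-instar larvae and held 5 days at high humidity before scoring mortality.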

Assay [8] relates to Aster Leafhopper [Macrosteles fascifrens (Stal)]. As to the kind of experiment: Aster leafhopper test (LH). The settings on record: adults/nymphs, 48 hours, percent in solution.

Some results are limits rather than exact numbers.

As to `CC(C)(F)C(=Nc1ccc(F)c(Cl)c1)OCc1ccc(F)c(Oc2ccc(F)cc2)c1` [Compound 310], the “LC50 TBW E” value in assay [1] is on record as 0.015%. The “LC50 HF” value in assay [2] is 4.5 µg. Further, the “LC50 CL” value in assay [3] was 0.00006%. The “LC50 RWW” value in assay [4] was above 2.5 µg.
`CC(C)C(=Nc1ccc(C(F)(F)F)c(Br)c1)OCc1ccc(F)c(Oc2ccc(Cl)cc2)c1` [Compound 433]: in assay [5], the “LC50 MW” value came to 0.005%. In addition, in assay [1], the “LC50 TBW E” value was 0.02%. Further, in assay [2], the “LC50 HF” value is below 100 µg. The “LC50 CL” value in assay [3] was 0.00017%. In assay [4], the “LC50 RWW” value was found to be 0.078 µg.
On to `CC(C)C(=Nc1ccc(C(F)(F)F)cc1)OCc1ccc(F)c(Oc2ccc(F)cc2)c1` [Compound 314], for which the “LC50 TBW E” value in assay [1] was found to be 0.012%. The “LC50 HF” value in assay [2] came to 21 µg. The “LC50 CL” value in assay [3] amounted to 0.00005%. In assay [4], the “LC50 RWW” value was found to be 0.11 µg.
Take `C=C(C)C(=Nc1ccc(C(F)(F)F)cc1)OCc1ccc(F)c(Oc2ccccc2)c1` [Compound 431]: in assay [5], the “LC50 MW” value is 0.0037%. Moreover, in assay [1], the “LC50 TBW E” value came out at 0.025%. Further, the “LC50 HF” value in assay [2] amounted to 9.8 µg. Moreover, in assay [3], the “LC50 CL” value is listed as 0.00017%. For the same molecule, the “LC50 RWW” value in assay [4] was 0.084 µg.
Consider `CC(C)C(=Nc1ccc(Br)cc1)OCc1ccc(F)c(Oc2ccc(Cl)cc2)c1` [Compound 378], for which the “LC50 MW” value in assay [5] is above 0.01%. Further, in assay [1], the “LC50 TBW E” value came to 0.02%. For the same molecule, the “LC50 HF” value in assay [2] is below 100 µg. Further, in assay [3], the “LC50 CL” value came out at 0.00034%. Also, in assay [4], the “LC50 RWW” value is above 2.5 µg.
Turning to `CCOc1ccc(N=C(OCc2ccc(F)c(Oc3ccccc3)c2)C(C)C)cc1Cl` [Compound 370], in assay [5], the “LC50 MW” value is reported as above 0.01%. Further, the “LC50 TBW E” value in assay [1] came to 0.02%. The “LC50 HF” value in assay [2] was below 100 µg. For the same molecule, the “LC50 CL” value in assay [3] is listed as 0.00034%. For the same molecule, in assay [4], the “LC50 RWW” value is above 2.5 µg.
Take `CCOc1ccc(N=C(OCc2ccc(F)c(Oc3ccc(Cl)cc3)c2)C(C)C)cc1Cl` [Compound 369]: in assay [5], the “LC50 MW” value was above 0.01%. The “LC50 TBW E” value in assay [1] is listed as above 0.1%. Besides, the “LC50 HF” value in assay [2] is above 100 µg. The “LC50 CL” value in assay [3] turned out to be 0.0016%. The “LC50 RWW” value in assay [4] was above 2.5 µg.
On to `FC(F)(F)c1ccc(N=C(OCc2cccc(Oc3ccccc3)c2)C(Cl)Cl)cc1` [Compound 61], for which the “LC50 MW” value in assay [5] is given as above 0.01%. The “LC50 TBW E” value in assay [1] is 0.03%. The “LC50 BAW” value in assay [6] amounted to 0.002%. In assay [2], the “LC50 HF” value turned out to be 29 µg. Moreover, the “LC50 TBW C” value in assay [7] stood at 0.03%. The “LC50 LH” value in assay [8] is above 0.05%. Besides, the “LC50 CL” value in assay [3] was 0.001%.
Take `CC(C)C(=Nc1ccc(Cl)cc1)OCc1ccc(F)c(Oc2ccc(Cl)cc2)c1` [Compound 391]: the “LC50 TBW E” value in assay [1] is recorded as 0.035%. Also, in assay [2], the “LC50 HF” value was below 100 µg. In addition, the “LC50 CL” value in assay [3] is recorded as 0.00029%. The “LC50 RWW” value in assay [4] was above 2.5 µg.
In the case of `CC(C)C(=Nc1ccc(F)c(F)c1F)OCc1cccc(Oc2ccc(F)cc2)c1` [Compound 348], in assay [5], the “LC50 MW” value is listed as above 0.01%. In addition, in assay [1], the “LC50 TBW E” value is recorded as above 0.1%. Further, the “LC50 BAW” value in assay [6] was above 0.1%. Moreover, in assay [2], the “LC50 HF” value was found to be 8 µg. For the same molecule, the “LC50 TBW C” value in assay [7] came out at 0.00075%. Besides, in assay [8], the “LC50 LH” value was 0.05%. The “LC50 CL” value in assay [3] amounted to 0.0002%.
Take `CC(C)C(=Nc1ccc(F)c(Br)c1)OCc1cccc(Oc2ccccc2)c1` [Compound 254]: in assay [1], the “LC50 TBW E” value was found to be 0.026%. Further, the “LC50 HF” value in assay [2] amounted to 6 µg. Also, the “LC50 CL” value in assay [3] is given as 0.001%. For the same molecule, in assay [4], the “LC50 RWW” value is above 2.5 µg.
Take `CC(C)C(=Nc1ccc(C(C)C)cc1)OCc1cccc(Oc2ccccc2)c1` [Compound 144]: in assay [5], the “LC50 MW” value is recorded as above 0.01%. Further, in assay [1], the “LC50 TBW E” value came out at 0.05%. The “LC50 BAW” value in assay [6] is listed as above 0.01%. The “LC50 HF” value in assay [2] is 100 µg. In assay [7], the “LC50 TBW C” value is on record as 0.006%. Moreover, the “LC50 LH” value in assay [8] amounted to 0.0006%. For the same molecule, the “LC50 CL” value in assay [3] amounted to 0.002%.
For `CC(Cl)(Cl)C(=Nc1ccc(Cl)cc1)OCc1cccc(Oc2ccccc2)c1` [Compound 3], the “LC50 MW” value in assay [5] is on record as above 0.01%. The “LC50 TBW E” value in assay [1] is given as above 0.1%. Further, the “LC50 BAW” value in assay [6] is listed as 0.015%. The “LC50 HF” value in assay [2] is 50 µg. For the same molecule, the “LC50 TBW C” value in assay [7] is 0.009%. Moreover, the “LC50 LH” value in assay [8] was above 0.05%. The “LC50 CL” value in assay [3] is on record as 0.012%.
As for `CC1(C(=Nc2ccc(Cl)cc2)OCc2cccc(Oc3ccccc3)c2)CC1` [Compound 5], the “LC50 MW” value in assay [5] was above 0.01%. In assay [1], the “LC50 TBW E” value stood at 0.05%. Besides, the “LC50 BAW” value in assay [6] was determined as 0.025%. Further, in assay [2], the “LC50 HF” value was found to be 21 µg. Moreover, the “LC50 TBW C” value in assay [7] came to 0.008%. Moreover, the “LC50 LH” value in assay [8] is reported as above 0.05%. Also, the “LC50 CL” value in assay [3] stood at 0.005%.
In the case of `CC(C)C(=Nc1ccc2c(c1)OCO2)OCc1cccc(Oc2ccc(F)cc2)c1` [Compound 176], in assay [5], the “LC50 MW” value was 0.009%. In addition, the “LC50 TBW E” value in assay [1] is reported as 0.05%. For the same molecule, in assay [6], the “LC50 BAW” value came to 0.0035%. In addition, the “LC50 HF” value in assay [2] was 1.8 µg. In assay [7], the “LC50 TBW C” value is given as 0.002%. In assay [8], the “LC50 LH” value was above 0.05%. Besides, the “LC50 CL” value in assay [3] was determined as 0.0005%.
For `CC(C)C(=Nc1ccc(OC(F)(F)F)cc1)OCc1ccc(F)c(Oc2ccc(F)c(F)c2)c1` [Compound 347], the “LC50 MW” value in assay [5] was above 0.01%. For the same molecule, in assay [1], the “LC50 TBW E” value is above 0.1%. Besides, in assay [6], the “LC50 BAW” value amounted to 0.00075%. In addition, the “LC50 HF” value in assay [2] was 30 µg. The “LC50 TBW C” value in assay [7] turned out to be 0.0001%. Besides, the “LC50 LH” value in assay [8] came to 0.0002%. The “LC50 CL” value in assay [3] came to 0.000075%.
With `FC(F)(F)Oc1ccc(N=C(OCc2cccc(Oc3ccccc3)c2)C(Cl)Cl)cc1` [Compound 64], the “LC50 MW” value in assay [5] is reported as above 0.01%. Besides, in assay [1], the “LC50 TBW E” value is recorded as 0.03%. Also, the “LC50 BAW” value in assay [6] was 0.0025%. Further, in assay [2], the “LC50 HF” value is 11 µg. The “LC50 TBW C” value in assay [7] was determined as 0.1%. In addition, the “LC50 LH” value in assay [8] was above 0.05%. Moreover, the “LC50 CL” value in assay [3] was determined as 0.0025%.
As to `CC(C)C(=Nc1cccc(C(F)(F)F)c1)OCc1ccc(F)c(Oc2ccc(F)cc2)c1` [Compound 268], the “LC50 MW” value in assay [5] is recorded as above 0.01%. Also, the “LC50 TBW E” value in assay [1] is given as 0.023%. The “LC50 BAW” value in assay [6] is 0.001%. Also, the “LC50 HF” value in assay [2] turned out to be 4 µg. Moreover, the “LC50 TBW C” value in assay [7] is 0.0005%. In addition, the “LC50 LH” value in assay [8] was 0.0005%. In assay [3], the “LC50 CL” value is recorded as 0.000025%.
Turning to `Fc1ccc(N=C(OCc2cccc(Oc3ccccc3)c2)C2CC2)cc1Cl` [Compound 113], the “LC50 TBW E” value in assay [1] worked out at 0.1%. Moreover, the “LC50 HF” value in assay [2] was 15 µg. For the same molecule, the “LC50 CL” value in assay [3] is reported as 0.005%. Moreover, the “LC50 RWW” value in assay [4] was above 2.5 µg.
For `Clc1cccc(N=C(OCc2cccc(Oc3ccccc3)c2)C(Cl)Cl)c1` [Compound 1], the “LC50 MW” value in assay [5] is given as above 0.01%. In assay [1], the “LC50 TBW E” value came out at 0.05%. The “LC50 BAW” value in assay [6] amounted to 0.009%. Further, the “LC50 HF” value in assay [2] came out at 4.8 µg. In assay [7], the “LC50 TBW C” value was 0.06%. Besides, the “LC50 LH” value in assay [8] is recorded as above 0.05%. Moreover, the “LC50 CL” value in assay [3] is given as 0.005%.
